How the values were obtained:
KRAS (G12C)::SOS1 = target: T1, KRAS (G12C)::SOS1 (Homo sapiens, UniProt P01116, C118S/C51S/C80L/G12C); assay: KRAS::SOS1 AlphaScreen binding assay, KRAS G12C; conditions: read-out: KRASG12C IC50
T1 construct: KRAS (G12C) 1-169, N-terminal 6His-tag for purification, cleaved off; 6His-tag (N, cleaved yes); made in house
From the text: This assay can be used to examine the potency with which compounds according to the invention binding to (mutated) KRAS inhibit the protein-protein interaction between SOS1 and (mutated) KRAS e.g., KRAS WT, KRAS G12C, KRAS G12D, KRAS G12V, KRAS G13D. […] Low IC50 values in this assay setting are indicative of strong inhibition of protein-protein interaction between SOS1 and KRAS:
These assays measure the inhibitory effect of compounds on KRAS mutant protein-protein interactions using the Alpha Screen technology by Perkin Elmer
The following (mutant) enzyme forms of KRAS and interacting proteins are used in these assays at the given concentrations: • KRAS (G12D) 1-169, N-terminal 6His-tag, C-terminal avi-tag (Xtal BioStructures, Inc.); final assay concentration 10 nM and SOS1 564-1049, N-terminal 229 GST-tag, TEV cleavage site (Viva Biotech Ltd); final assay concentration 5 nM; • KRAS (G12C) 1-169, N-terminal 6His-tag for purification, cleaved off, C-terminal avi-tag, biotinylated, mutations: C51S, C80L, C118S (in house); final assay concentration 7.5 nM and SOS1 564-1049, N-terminal 229 GST-tag, TEV cleavage site (Viva Biotech Ltd); final assay concentration 5 nM; • KRAS (G12V) 1-169, N-terminal 6His-tag for purification, cleaved off, C-terminal avi-tag, biotinylated, TEV cleavage site, mutation: C118S, GDP loaded (in house); final assay concentration 10 nM and SOS1 564-1049, N-terminal 229 GST-tag, TEV cleavage site (Viva Biotech Ltd); final assay concentration 10 nM; • KRAS (G13D) 1-169, N-terminal 6His-tag for purification, cleaved off, C-terminal avi-tag, biotinylated, TEV cleavage site, mutation: C118S, GDP loaded (in house); final assay concentration 10 nM and SOS1 564-1049, N-terminal 229 GST-tag, TEV cleavage site (Viva Biotech Ltd); final assay concentration 10 nM; • KRAS (WT) 1-169, N-terminal 6His-tag for purification, cleaved off, C-terminal avi-tag, biotinylated, TEV cleavage site, mutation: C118S, GDP loaded (in house); final assay concentration 10 nM and SOS1 564-1049, N-terminal 229 GST-tag, TEV cleavage site (Viva Biotech Ltd); final assay concentration 10 nM.
Test compounds dissolved in DMSO are dispensed onto assay plates (Proxiplate 384 PLUS, white, PerkinElmer; 6008289) using an Access Labcyte Workstation with the Labcyte Echo 55×. For the chosen highest assay concentration of 100 μM, 150 nL of compound solution are transferred from a 10 mM DMSO compound stock solution. A series of eleven fivefold dilutions per compound are transferred to the assay plate, compound dilutions are tested in duplicates. DMSO are added as backfill to a total volume of 150 nL.
The assays run on a fully automated robotic system in a darkened room below 100 Lux. To 150 nl of compound dilution 10 μl of a mix including KRAS mutant protein, SOS1 (final assay concentrations see above) and GDP nucleotide (Sigma G7127; final assay concentration 10 μM) in assay buffer (1×PBS, 0.1% BSA, 0.05% Tween 20) are added into columns 1-24.
After 30 minutes incubation time 5 μl of Alpha Screen bead mix in assay buffer are added into columns 1-23. Bead mix consists of AlphaLISA Glutathione Acceptor Beads (PerkinElmer, Cat No AL109) and AlphaScreen Streptavidin Donor Beads (PerkinElmer Cat No 6760002) in assay buffer at a final assay concentration of 10 μg/ml each.
Plates are kept at room temperature in a darkened incubator. After an additional 60 minutes incubation time the signal is measured in a PerkinElmer Envision HTS Multilabel Reader using the AlphaScreen specs from PerkinElmer.
Each plate contains up to 16 wells of a negative control depending on the dilution procedure (platewise or serial) (DMSO instead of test compound; with KRAS mutant::SOS1 GDP mix and bead mix; column 23) and 16wells of a positive control (DMSO instead of test compound; with KRAS mutant::SOS1 GDP mix w/o bead mix; column 24).
As internal control known inhibitors of KRAS mutant::SOS1 interaction can be measured on each compound plate. […]

NCI-H358 cells = assay: NCI-H358 CTG proliferation assay (120 h) (NSCLC, G12C); assay type: cell-based; conditions: Homo sapiens
Method: Additional Proliferation Assays with Mutant Cancer Cell Lines • NCI-H358 CTG proliferation assay (120 h) (NSCLC, G12C)
NCI-H358 cells (ATCC No. CRL-5807) are dispensed into black 384-well plates, flat and clear bottom (Greiner, PNr. 781091) at a density of 200 cells per well in 60 μl RPMI-1640 ATCC-Formulation (Gibco #A10491)+10% FCS (fetal calf serum). […] For the TO time point measurement, untreated cells are analyzed at the time of compound addition. Plates are incubated for 120 h, and cell viability is measured using CellTiter-Glo luminescent cell viability reagent (Promega product code G7570). Viability (stated as percent of control) is defined as relative luminescence units RLU of each well divided by the RLU of cells in DMSO controls.

SAS cells = assay: SAS CTG proliferation assay (120 h) (HNSCC, wt amplified); assay type: cell-based
Method: SAS cells (JCRB0260) are dispensed into 384-well plates, flat and clear bottom (Greiner, PNr. 781091) at a density of 300 cells per well in 60 μL DMEM:F12 (Gibco 31330-038)+10% Fetal Calf Serum (HyClone, PNr.: SH30084.03) and incubated at 37° C. in a CO2 incubator overnight The next day, compounds (10 mM stock in DMSO) are added with the ECHO acoustic liquid handler system (Beckman Coulter), including DMSO controls. Plates are incubated for 120 h, and cell viability is measured using CellTiter-Glo luminescent cell viability reagent (Promega product code G7570). Viability (stated as percent of control) is defined as relative luminescence units RLU of each well divided by the RLU of cells in DMSO controls.

T1 sequence (P01116 1-169 isoform P01116-2 G12C/C51S/C80L/C118S): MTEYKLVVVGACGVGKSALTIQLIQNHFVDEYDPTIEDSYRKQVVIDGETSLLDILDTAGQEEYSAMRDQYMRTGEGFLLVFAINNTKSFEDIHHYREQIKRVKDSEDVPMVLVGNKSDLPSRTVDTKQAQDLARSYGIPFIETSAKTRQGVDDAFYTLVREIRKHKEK

| Structure (SMILES) | IC50 (KRAS (G12C)::SOS1) [µM] | IC50 (NCI-H358 cells) [µM] | IC50 (SAS cells) [µM] |
| --- | --- | --- | --- |
| C[C@H](Oc1cc(O[C@H]2CNC(C)(C)C2)nc(-c2noc3c2CCC[C@@]32CCCc3sc(N)c(C#N)c32)n1)[C@@H]1CCCN1C (single isomer, unassigned) [II-8] | 0.002 | 1.18 | 2.6 |
| C[C@H](Oc1cc(Oc2nccs2)nc(-c2onc3c2CCC[C@@]32CCCc3sc(N)c(C#N)c32)n1)[C@@H]1CCCN1C [Example I-1] | 0.001 | – | 0.019 |
| C[C@H](Oc1cc(Oc2cccnc2)nc(-c2onc3c2CCC[C@@]32CCCc3sc(N)c(C#N)c32)n1)[C@@H]1CCCN1C [Example I-2] | 0.001 | – | 0.015 |
| C[C@H](Oc1cc(Oc2cncnc2)nc(-c2onc3c2CCC[C@@]32CCCc3sc(N)c(C#N)c32)n1)[C@@H]1CCCN1C [Example I-3] | 0.001 | – | 0.014 |
| C[C@H](Oc1cc(N[C@H]2CCOC2)nc(-c2onc3c2CCC[C@@]32CCCc3sc(N)c(C#N)c32)n1)[C@@H]1CCCN1C [Example I-4] | 0.003 | 2.28 | 0.719 |
| COC[C@H](C)Nc1cc(O[C@@H](C)[C@@H]2CCCN2C)nc(-c2onc3c2CCC[C@@]32CCCc3sc(N)c(C#N)c32)n1 [Example I-5] | 0.005 | – | – |
| C[C@H](Oc1cc(Nc2ccccn2)nc(-c2onc3c2CCC[C@@]32CCCc3sc(N)c(C#N)c32)n1)[C@@H]1CCCN1C [Example I-6] | 0.003 | 1.36 | 0.081 |
| C[C@H](Oc1cc(Sc2ncccn2)nc(-c2onc3c2CCC[C@@]32CCCc3sc(N)c(C#N)c32)n1)[C@@H]1CCCN1C [Example I-7] | 0.005 | 5.62 | 0.221 |
| C[C@H](Oc1cc(OCC2(N(C)C)COC2)nc(-c2onc3c2CCC[C@@]32CCCc3sc(N)c(C#N)c32)n1)[C@@H]1CCCN1C [Example I-8] | 0.002 | 0.076 | 0.051 |
| C[C@H](Oc1cc(Oc2cncnc2)nc(-c2noc3c2CCC[C@@]32CCCc3sc(N)c(C#N)c32)n1)[C@@H]1CCCN1C [II-1] | 0.001 | 0.178 | 0.02 |
| C[C@H](Oc1cc(Oc2nccs2)nc(-c2noc3c2CCC[C@@]32CCCc3sc(N)c(C#N)c32)n1)[C@@H]1CCCN1C [II-2] | 0.002 | 0.115 | 0.044 |
| C[C@H](Oc1cc(Oc2ccon2)nc(-c2noc3c2CCC[C@@]32CCCc3sc(N)c(C#N)c32)n1)[C@@H]1CCCN1C [II-3] | 0.002 | 0.275 | 0.067 |
| C[C@H](Oc1cc(O[C@H]2CCOC2)nc(-c2noc3c2CCC[C@@]32CCCc3sc(N)c(C#N)c32)n1)[C@@H]1CCCN1C [II-4] | 0.002 | 0.193 | 0.044 |
| COCCOc1cc(O[C@@H](C)[C@@H]2CCCN2C)nc(-c2noc3c2CCC[C@@]32CCCc3sc(N)c(C#N)c32)n1 [II-5] | 0.002 | 0.339 | 0.067 |
| C[C@H](Oc1cc(OCCO)nc(-c2noc3c2CCC[C@@]32CCCc3sc(N)c(C#N)c32)n1)[C@@H]1CCCN1C [II-6] | 0.001 | 0.165 | 0.04 |
| C[C@H](Oc1cc(Oc2cnccn2)nc(-c2noc3c2CCC[C@@]32CCCc3sc(N)c(C#N)c32)n1)[C@@H]1CCCN1C [II-7] | 0.002 | – | 1.39 |
| C[C@H](Oc1cc(O[C@@H]2CNC2(C)C)nc(-c2noc3c2CCC[C@@]32CCCc3sc(N)c(C#N)c32)n1)[C@@H]1CCCN1C [II-9] | 0.002 | 0.069 | 0.179 |
| C[C@H](Oc1cc(N(C)C)nc(-c2noc3c2CCC[C@@]32CCCc3sc(N)c(C#N)c32)n1)[C@@H]1CCCN1C [II-10] | 0.002 | – | 0.795 |
| C[C@H](Oc1cc(NCC2COC2)nc(-c2noc3c2CCC[C@@]32CCCc3sc(N)c(C#N)c32)n1)[C@@H]1CCCN1C [II-11] | 0.002 | – | 0.021 |
| C[C@H](Oc1cc(Nc2nccs2)nc(-c2noc3c2CCC[C@@]32CCCc3sc(N)c(C#N)c32)n1)[C@@H]1CCCN1C [II-12] | 0.004 | 0.819 | 0.594 |
| C[C@H](Oc1cc(Nc2ncco2)nc(-c2noc3c2CCC[C@@]32CCCc3sc(N)c(C#N)c32)n1)[C@@H]1CCCN1C [II-13] | 0.002 | 0.146 | 0.046 |
| C[C@H](Oc1cc(Nc2cnccn2)nc(-c2noc3c2CCC[C@@]32CCCc3sc(N)c(C#N)c32)n1)[C@@H]1CCCN1C [II-14] | 0.003 | 0.558 | 0.285 |
| C[C@H](Oc1cc(Nc2ccncn2)nc(-c2noc3c2CCC[C@@]32CCCc3sc(N)c(C#N)c32)n1)[C@@H]1CCCN1C [II-15] | 0.003 | 0.123 | 0.087 |
| C[C@H](Oc1cc(Nc2ccccn2)nc(-c2noc3c2CCC[C@@]32CCCc3sc(N)c(C#N)c32)n1)[C@@H]1CCCN1C [II-16] | 0.002 | 0.44 | – |
| C[C@H](Oc1cc(Nc2ncccn2)nc(-c2noc3c2CCC[C@@]32CCCc3sc(N)c(C#N)c32)n1)[C@@H]1CCCN1C [II-17] | 0.002 | 0.775 | 0.104 |
| C[C@H](Oc1cc(N(C)CCN(C)C)nc(-c2noc3c2CCC[C@@]32CCCc3sc(N)c(C#N)c32)n1)[C@@H]1CCCN1C [II-20] | 0.01 | – | 0.327 |
| C[C@H](Oc1cc(OCC2(N(C)C)CC2)nc(-c2noc3c2CCC[C@@]32CCCc3sc(N)c(C#N)c32)n1)[C@@H]1CCCN1C [II-21] | 0.003 | – | 0.577 |
| C[C@H](Oc1cc(OCC2(N(C)C)COC2)nc(-c2noc3c2CCC[C@@]32CCCc3sc(N)c(C#N)c32)n1)[C@@H]1CCCN1C [II-22] | 0.002 | – | 0.084 |
| COc1c(OCC2(N(C)C)COC2)nc(-c2noc3c2CCC[C@@]32CCCc3sc(N)c(C#N)c32)nc1O[C@@H](C)[C@@H]1CCCN1C [II-25] | 0.002 | – | 0.055 |

Source: US20250129095A1, “ANNULATED 2-AMINO-3-CYANO THIOPHENES AND DERIVATIVES FOR THE TREATMENT OF CANCER” (Boehringer Ingelheim Int'l GmbH Corp., priority 2021, published 2025)
